Consider one compound from publication PMC6934184, “Selective DNA-PKcs inhibition extends the therapeutic index of localized radiotherapy and chemotherapy” (The Journal of Clinical Investigation, 2019).

The target of this assay is T1, MAP3K5 (ASK1) (Homo sapiens, UniProt Q99683).
T1 construct: purchased Thermo Fisher Scientific (Life Technologies) SelectScreen
Put plainly: SelectScreen LanthaScreen. In kind it is binding. Particulars: read-out: % displacement. The method, boiled down: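 SelectScreen broad panel; activity (Z'LYTE, Adapta) plus binding formats. ATP: Km app for CSF1R Z'LYTE; 10 for CAMK1 Adapta. Readout = % per kinase.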
On the technique in general: Time-resolved FRET reads energy transfer from a long-lived donor to a nearby acceptor.

T1 sequence (Q99683 whole entry): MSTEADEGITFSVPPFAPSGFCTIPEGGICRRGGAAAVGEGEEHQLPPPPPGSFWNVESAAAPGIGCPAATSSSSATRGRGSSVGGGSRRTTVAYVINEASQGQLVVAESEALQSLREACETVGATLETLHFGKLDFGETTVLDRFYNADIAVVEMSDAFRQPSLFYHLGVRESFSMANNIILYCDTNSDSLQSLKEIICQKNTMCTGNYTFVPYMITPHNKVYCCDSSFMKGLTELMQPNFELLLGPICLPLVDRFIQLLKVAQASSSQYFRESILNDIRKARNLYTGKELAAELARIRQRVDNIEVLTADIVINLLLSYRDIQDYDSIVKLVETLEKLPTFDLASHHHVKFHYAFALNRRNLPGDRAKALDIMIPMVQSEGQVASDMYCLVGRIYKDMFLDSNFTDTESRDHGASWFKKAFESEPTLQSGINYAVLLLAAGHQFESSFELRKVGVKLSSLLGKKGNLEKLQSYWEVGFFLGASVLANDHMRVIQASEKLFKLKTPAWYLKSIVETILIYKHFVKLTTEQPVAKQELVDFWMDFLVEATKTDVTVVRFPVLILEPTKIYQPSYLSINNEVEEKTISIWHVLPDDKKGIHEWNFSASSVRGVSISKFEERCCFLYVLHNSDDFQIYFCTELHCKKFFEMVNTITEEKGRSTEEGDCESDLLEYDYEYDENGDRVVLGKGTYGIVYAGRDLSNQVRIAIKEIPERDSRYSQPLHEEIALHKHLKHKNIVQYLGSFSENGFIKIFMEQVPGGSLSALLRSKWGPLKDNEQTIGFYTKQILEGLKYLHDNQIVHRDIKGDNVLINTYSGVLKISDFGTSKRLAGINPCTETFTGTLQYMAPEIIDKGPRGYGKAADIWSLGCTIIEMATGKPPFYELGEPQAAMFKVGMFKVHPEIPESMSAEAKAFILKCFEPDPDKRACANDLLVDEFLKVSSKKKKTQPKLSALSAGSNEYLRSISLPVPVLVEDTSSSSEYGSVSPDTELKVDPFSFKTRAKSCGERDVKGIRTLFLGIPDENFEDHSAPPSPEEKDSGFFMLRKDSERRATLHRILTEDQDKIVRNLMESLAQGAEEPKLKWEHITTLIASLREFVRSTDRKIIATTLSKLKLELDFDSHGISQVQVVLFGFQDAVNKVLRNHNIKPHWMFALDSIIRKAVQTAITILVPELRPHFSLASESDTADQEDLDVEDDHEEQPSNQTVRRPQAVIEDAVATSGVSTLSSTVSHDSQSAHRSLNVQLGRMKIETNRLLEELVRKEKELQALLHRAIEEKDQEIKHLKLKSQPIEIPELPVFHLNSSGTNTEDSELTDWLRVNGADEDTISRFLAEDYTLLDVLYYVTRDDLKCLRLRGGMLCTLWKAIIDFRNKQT

`CN(C(=O)CN1CCOCC1)c1ccc2sc3c(-c4cccc5c(=O)cc(N6CC7CCC(C6)O7)oc45)cccc3c2c1` [NU5455]: the inhibition at 1 µM stood at 2.3%.
